Assays:
σ1 receptor = target: T1, σ1 receptor (Cavia porcellus, UniProt Q60492); assay: Sigma-1 receptor competition binding assay with [3H]-(+)-pentazocine; design: species or system guinea pig; details: apparent Ki (Cheng-Prusoff), brain membranes
T1 construct: The membranes were prepared from guinea pig brain (minus cerebellum) as described above; from tissue; host or cells: guinea pig brain (minus cerebellum) membranes
Protocol: The in vitro σ1 receptor binding affinities of rhenium coordinated complexes were determined in a competition assay using […] and high-affinity σ1 ligand [3H]-(+)-pentazocine (28 Ci/mmol, NEN Life Science Inc., Cambridge, Mass.). See, Mol. Neuropharmacol. 1993, 3, 117-126.
The membranes were prepared from guinea pig brain (minus cerebellum) as described above and stored at −70 ° C. Twelve concentrations of the nonradioactive rhenium complexes ranging from 1×10^−11 to 1×10^−3 and protein samples (0.15 mg of membrane protein) were incubated with […] [3H]-(+)-pentazocine in a total volume of 0.25 mL of Tris-HCl (50 mM, pH 8.0). Incubations were carried out for 120 min at 25° C. All assays were terminated by dilution with 5 mL of ice-cold Tris-HCl (10 mM), pH 8.0, and solution were filtered through glass-fiber filters (Whatman GF/F; presoaked in 0.5% polyethyleneimine for 30 min at 25° C.). Filters were then washed three times with 5 mL of ice-cold Tris-HCl (50 mM, pH 8.0), and counted in Hionic-Fluor cocktail (Packard, Groningen, the Netherlands). The corresponding IC50 values were determined with Origin 6.0 software (OriginLab, Northampton, Mass.) and were used for the calculation of the apparent Ki values with the Cheng-Prusoff equation. See, Biochem. Pharmacol. 1973, 22, 3099-3108.

5HT1A receptor = target: T2, 5HT1A receptor (Rattus norvegicus, UniProt P19327); assay: 5HT1A receptor competition binding assay with [3H]-8-OH-DPAT; details: apparent Ki, rat hippocampus
T2 construct: The brains were rapidly removed, and hippocampus, frontal cortex, hypothalamus, and striatum were hand-dissected on ice; from tissue; host or cells: male Sprague-Dawley rat hippocampus membranes
T2 sequence (P19327 1-422): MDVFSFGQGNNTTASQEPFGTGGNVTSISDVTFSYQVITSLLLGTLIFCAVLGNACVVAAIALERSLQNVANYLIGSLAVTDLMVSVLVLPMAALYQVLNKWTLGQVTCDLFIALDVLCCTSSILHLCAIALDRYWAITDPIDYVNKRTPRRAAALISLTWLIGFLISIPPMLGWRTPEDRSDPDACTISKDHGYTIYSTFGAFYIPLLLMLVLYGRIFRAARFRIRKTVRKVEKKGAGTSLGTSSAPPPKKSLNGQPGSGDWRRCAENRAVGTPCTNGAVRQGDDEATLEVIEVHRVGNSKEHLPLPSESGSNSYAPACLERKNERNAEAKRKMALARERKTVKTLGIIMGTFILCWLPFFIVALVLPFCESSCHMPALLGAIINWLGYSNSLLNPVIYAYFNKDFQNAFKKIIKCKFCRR
Protocol: The in vitro 5HT1A binding affinities of rhenium coordinated complexes were determined in a competition assay using rat hippocampus and high-affinity 5HT1A-ligand [^3H]-8-OH-DPAT (135 Ci/mmol, NEN Life Science Inc., Cambridge, Mass.). See, Brain Res. 1995, 673, 217-225.
Male Sprague-Dawley rats (weighing 150-170 g) were sacrificed using anesthesia agent isoflurane. The brains were rapidly removed, and hippocampus, frontal cortex, hypothalamus, and striatum were hand-dissected on ice and stored at −70° C. Tissue was thawed at room temperature and homogenized using a Brinkmann Polytron tissue disrupter in 50 volumes (wt/vol) of ice-cold 50 mM Tris-HCl buffer (pH 7.4). The suspension was centrifuged twice at 27,000 g for 20 min at 4° C. The membrane pellets were resuspended in 50 volumes of (wt/vol) Tris-HCl buffer and incubated at 37° C. for 20 min in a water bath, before a final centrifugation step (27,000 g; 20 min; 4° C.). The final tissue pellets were stored at −70° C. until assayed.
(§1) Twelve concentrations of the nonradioactive rhenium complexes ranging from 1×10^−11 to 1×10^−4 and protein samples (0.15 mg of membrane protein) were incubated with 1.5 nM [^3H]-8-OH-DPAT in a total volume of 0.25 mL of Tris-HCl (50 mM, pH 7.4, 10 mM MgSO4). Incubations were carried out for 60 min at 25° C. All assays were terminated by dilution with 5 mL of ice-cold Tris-HCl (10 mM), pH 7.4, and solution were filtered through glass-fiber filters (Whatman GF/F; presoaked in 0.5% polyethyleneimine for 30 min at 25° C.). Filters were then washed three times with 5 mL of ice-cold Tris-HCl (50 mM, pH 7.4), and counted in Hionic-Fluor cocktail (Packard, Groningen, the Netherlands). The corresponding IC50 values were determined with Origin 6.0 software (OriginLab, Northampton, Mass.) and were used for the calculation of the apparent Ki values with the Cheng-Prusoff equation. See, Biochem. Pharmacol. 1973, 22, 3099-3108.

α1 receptor = assay: Alpha-1 receptor competition binding assay with [3H]-Prazosin; details: apparent Ki, rat frontal cortex
Protocol: The in vitro α1 receptor binding affinities of rhenium coordinated complexes were determined in a competition assay using rat frontal cortex and high-affinity α1 ligand [^3H]-Prazosin (80 Ci/mmol, NEN Life Science Inc., Cambridge, Mass.). See, Eur. J. Nucl. Med. 2002, 29, 82-87.
as §1, with “The frontal cortex of rat brain was prepared as described above and store at −70° C. until used in the binding assays. Ten” for “Twelve”, “1×10^−10” for “1×10^−11”, “1×10^−3” for “1×10^−4”, “[^3H]-Prazosin” for “[^3H]-8-OH-DPAT”, “Biocheni.” for “Biochem.”

T1 sequence (Q60492 whole entry): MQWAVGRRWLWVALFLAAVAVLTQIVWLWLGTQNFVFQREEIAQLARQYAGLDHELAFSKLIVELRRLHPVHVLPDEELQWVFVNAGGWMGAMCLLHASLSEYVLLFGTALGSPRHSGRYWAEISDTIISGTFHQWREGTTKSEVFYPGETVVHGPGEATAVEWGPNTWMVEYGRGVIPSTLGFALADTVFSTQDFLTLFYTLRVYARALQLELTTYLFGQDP

Structure (SMILES) | Ki (σ1 receptor) | Ki (5HT1A receptor) | Ki (α1 receptor)
COc1ccccc1C1CCN(CCCN2CC[S][Re]3(=[O])[S]CC[N]3C(=O)C2)CC1 (stereo not drawn) [Re-16] | 4830 nM | 4.5 ± 0.4 nM | 48 ± 9 nM
O=C1CN(CCCN2CCC(Cc3ccccc3)CC2)CC[S][Re]2(=[O])[S]CC[N]12 (stereo not drawn) [Re-15] | 547 nM | 589 ± 70 nM | 322 ± 61 nM
